Data reported in patent US20260167656A1, “PHOSPHORAMIDATE COMPOUNDS AND USES THEREOF” (ALLORION THERAPEUTICS INC, priority 2022, published 2026).

Legend:
[1] = test system: non-small cell lung cancer cell line H460; assay: In vitro human cancer cell line cytotoxicity (proliferation) assay in H460, CellTiter-Glo, 72 hours; type: cell-based; conditions: H460 cells, DMSO condition (no AKR1C3 inhibitor), read-out: CTG H460: Avg IC50 (nM) [Assay Condition: DMSO]
Protocol: Biological Example 1. In Vitro Human Cancer Cell Line Cytotoxicity Assay
IC50 values in nanomolar reported here were derived from in vitro proliferation assay data in non-small cell lung cancer cell line H460.
(§1) Specifically, exponentially growing cells were seeded at density of 3×10^3 cells per well in 96-well plate and incubated at 37° C. in 5% CO2, 95% air and 100% relative humidity for 24 hours before adding compounds. Compounds were solubilized in 100% DMSO at 10 mM. Compounds were added to the plate using Tecan D300e® digital Dispenser. After drug addition, the plates were incubated for an additional 72 hours at 37° C. in 5% CO2, 95% air and 100% relative humidity. At the end of the incubation, cell viability was quantified with CellTiter-Glo® assay.

[2] = test system: non-small cell lung cancer cell line H460; assay: H460 proliferation assay in the presence of 3 uM ASP9521 (AKR1C3 specific inhibitor); type: cell-based, human; conditions: H460 cells, CellTiter-Glo, 72 hours, in the presence of 3 uM ASP9521 added 4 hours prior to compounds; read-out: CTG H460: Avg IC50 (nM) [Assay Condition: ASP9521]
Protocol: as §1
To further confirm that compounds were activated by human AKR1C3, H460 proliferation assay were also performed in the presence of 3 uM […], an AKR1C3 specific inhibitor. ASP9521 were added to the plates 4 hours prior to the addition of compounds.

With `CN(C(=O)c1cccc(Oc2c([N+](=O)[O-])ccc3c2CCC3OP(=O)(N2CC2)N2CC2)c1)c1cnn(C)c1` (racemic) [Example 251] the IC50 [1] was < 10 nM and the IC50 [2] was 1090 nM.

For `CN(C)C(=O)c1cc(Oc2c([N+](=O)[O-])ccc3c2CCC3OP(=O)(N2CC2)N2CC2)ccn1` (racemic) [Example 253], the IC50 [1] was < 10 nM and the IC50 [2] was 697 nM.

`O=C(c1cc(Oc2c([N+](=O)[O-])ccc3c2CCC3OP(=O)(N2CC2)N2CC2)ccc1F)N1CCC1` (racemic) [Example 256] was tested, and the IC50 [1] was < 10 nM and the IC50 [2] was 1240 nM.

With `O=[N+]([O-])c1ccc2c(c1Oc1ccc(-c3ccc(F)cn3)cc1)CCC2OP(=O)(N1CC1)N1CC1` (racemic) [Example 276] the IC50 [1] was < 10 nM and the IC50 [2] was 1340 nM.

With `Cc1cccc(-c2ccc(Oc3c([N+](=O)[O-])ccc4c3CCC4OP(=O)(N3CC3)N3CC3)cc2)n1` (racemic) [Example 277] the IC50 [1] was < 10 nM and the IC50 [2] was 1530 nM.

For `Cc1ccnc(-c2ccc(Oc3c([N+](=O)[O-])ccc4c3CCC4OP(=O)(N3CC3)N3CC3)cc2)n1` (racemic) [Example 280], the IC50 [1] was < 10 nM and the IC50 [2] was 1300 nM.

For `Cc1cncc(-c2ccc(Oc3c([N+](=O)[O-])ccc4c3CCC4OP(=O)(N3CC3)N3CC3)cc2)n1` (racemic) [Example 281], the IC50 [1] was < 10 nM and the IC50 [2] was 787 nM.

With `O=[N+]([O-])c1ccc2c(c1Oc1ccc(-c3ncccn3)cc1)CCC2OP(=O)(N1CC1)N1CC1` (racemic) [Example 282] the IC50 [1] was < 10 nM and the IC50 [2] was 1240 nM.

With `Cn1cc(-c2cccc(Oc3c([N+](=O)[O-])ccc4c3CCC4OP(=O)(N3CC3)N3CC3)c2)cn1` (racemic) [Example 299] the IC50 [1] was < 10 nM and the IC50 [2] was 744 nM.

In the case of `O=[N+]([O-])c1ccc2c(c1Oc1ccnc(C3CC3)c1)CCC2OP(=O)(N1CC1)N1CC1` (racemic) [Example 312], the IC50 [1] is reported as < 10 nM and the IC50 [2] is reported as 312 nM.

For `O=[N+]([O-])c1ccc2c(c1Oc1cncc(C3CC3)c1)CCC2OP(=O)(N1CC1)N1CC1` (racemic) [Example 315], the IC50 [1] was < 10 nM and the IC50 [2] was 679 nM.

With `O=[N+]([O-])c1ccc2c(c1Oc1cccc(-c3ccc(F)cn3)c1)CCC2OP(=O)(N1CC1)N1CC1` (racemic) [Example 320] the IC50 [1] was < 10 nM and the IC50 [2] was 2230 nM.

In the case of `CC(C)(C)c1cncc(Oc2c([N+](=O)[O-])ccc3c2CCC3OP(=O)(N2CC2)N2CC2)c1` (racemic) [Example 324], the IC50 [1] is reported as < 10 nM and the IC50 [2] is reported as 445 nM.

With `O=C1CCCCN1c1cccc(Oc2c([N+](=O)[O-])ccc3c2CCC3OP(=O)(N2CC2)N2CC2)c1` (racemic) [Example 404] the IC50 [2] was 1020 nM.

`O=C1COCCN1c1cccc(Oc2c([N+](=O)[O-])ccc3c2CCC3OP(=O)(N2CC2)N2CC2)c1` (racemic) [Example 405] gave an IC50 [2] of 871 nM.

For `O=c1ccccn1-c1cccc(Oc2c([N+](=O)[O-])ccc3c2CCC3OP(=O)(N2CC2)N2CC2)c1` (racemic) [Example 406], the IC50 [2] was 1320 nM.

In the case of `CC1(C)CN(c2cccc(Oc3c([N+](=O)[O-])ccc4c3CCC4OP(=O)(N3CC3)N3CC3)c2)C(=O)O1` (racemic) [Example 416], the IC50 [1] is reported as < 10 nM and the IC50 [2] is reported as 275 nM.

`O=[N+]([O-])c1ccc2c(c1Oc1ccc(F)c(-n3cc(F)cn3)c1)CCC2OP(=O)(N1CC1)N1CC1` (racemic) [Example 418] was tested, and the IC50 [1] was < 10 nM and the IC50 [2] was 1210 nM.

In the case of `O=[N+]([O-])c1ccc2c(c1Oc1ccc(-n3cc(F)cn3)cc1)CCC2OP(=O)(N1CC1)N1CC1` (racemic) [Example 419], the IC50 [1] is reported as < 10 nM and the IC50 [2] is reported as 1180 nM.

`O=[N+]([O-])c1ccc2c(c1Oc1cccc(OC(F)(F)F)c1)CCC2OP(=O)(N1CC1)N1CC1` (racemic) [Example 447] was tested, and the IC50 [1] was < 10 nM and the IC50 [2] was 547 nM.

`CC(C)Oc1cccc(Oc2c([N+](=O)[O-])ccc3c2CCC3OP(=O)(N2CC2)N2CC2)c1` (racemic) [Example 451] was tested, and the IC50 [1] was < 10 nM and the IC50 [2] was 1030 nM.

For `O=[N+]([O-])c1ccc2c(c1Oc1cccc(OC(F)F)c1)CCC2OP(=O)(N1CC1)N1CC1` (racemic) [Example 454], the IC50 [1] was < 10 nM and the IC50 [2] was 559 nM.

For `O=[N+]([O-])c1ccc2c(c1Oc1cccc(OC3CCC3)c1)CCC2OP(=O)(N1CC1)N1CC1` (racemic) [Example 459], the IC50 [1] was < 10 nM and the IC50 [2] was 845 nM.

`O=[N+]([O-])c1ccc2c(c1Oc1cccc(OC3CCCC3)c1)CCC2OP(=O)(N1CC1)N1CC1` (racemic) [Example 460] was tested, and the IC50 [1] was < 10 nM and the IC50 [2] was 1230 nM.

`CSc1ccc(Oc2c([N+](=O)[O-])ccc3c2CCC3OP(=O)(N2CC2)N2CC2)cc1` (racemic) [Example 461] was tested, and the IC50 [1] was < 10 nM and the IC50 [2] was 547 nM.

With `O=[N+]([O-])c1ccc2c(c1Oc1cccc(OC3COC3)c1)CCC2OP(=O)(N1CC1)N1CC1` (racemic) [Example 465] the IC50 [1] was < 10 nM and the IC50 [2] was 705 nM.

With `O=[N+]([O-])c1ccc2c(c1Oc1cccc(OCC(F)(F)F)c1)CCC2OP(=O)(N1CC1)N1CC1` (racemic) [Example 473] the IC50 [1] was < 10 nM and the IC50 [2] was 329 nM.

For `O=[N+]([O-])c1ccc2c(c1Oc1ccc(F)c(OC(F)F)c1)CCC2OP(=O)(N1CC1)N1CC1` (racemic) [Example 475], the IC50 [1] was < 10 nM and the IC50 [2] was 509 nM.

With `COc1ccn(Cc2cc(C(C)OP(=O)(N3CC3)N3CC3)ccc2[N+](=O)[O-])c(=O)c1` (single isomer, unassigned) [Example 2] the IC50 ([1]; Homo sapiens, NCI-H460, 72 h) was ≥ 100 nM and the IC50 [2] was > 10000 nM.

In the case of `COc1ccnc(OCc2cc(C(C)OP(=O)(N3CC3)N3CC3)ccc2[N+](=O)[O-])c1` (single isomer, unassigned) [Example 3], the IC50 ([1]; Homo sapiens, NCI-H460, 72 h) is reported as ≥ 100 nM and the IC50 [2] is reported as > 3410 nM.

`Cn1cc(-c2ccc(Oc3cc4c(cc3[N+](=O)[O-])CCC4OP(=O)(N3CC3)N3CC3)cc2)cn1` (single isomer, unassigned) [Example 521] showed an IC50 [2] of 1950 nM.

For `O=C(c1cccc(Oc2c([N+](=O)[O-])ccc3c2CCC3OP(=O)(N2CC2)N2CC2)c1)N1CC(F)(F)C1` (stereo not drawn) [Example 235], the IC50 [2] was 717 nM.

With `O=C(c1cccc(Oc2c([N+](=O)[O-])ccc3c2CCC3OP(=O)(N2CC2)N2CC2)c1)N1CCC(F)(F)C1` (stereo not drawn) [Example 239] the IC50 [2] was 1060 nM.

`O=C(c1cccc(Oc2c([N+](=O)[O-])ccc3c2CCC3OP(=O)(N2CC2)N2CC2)c1)N1CCCC1` (stereo not drawn) [Example 240] gave an IC50 [2] of 1150 nM.

`O=C(c1cccc(Oc2c([N+](=O)[O-])ccc3c2CCC3OP(=O)(N2CC2)N2CC2)c1)N1CCC(F)(F)C1` (stereo not drawn) [Example 242] gave an IC50 [2] of 1270 nM.

`O=C(c1cccc(Oc2c([N+](=O)[O-])ccc3c2CCC3OP(=O)(N2CC2)N2CC2)c1)N1CCC(F)(F)CC1` (stereo not drawn) [Example 244] was tested, and the IC50 [2] was 834 nM.

`O=C(c1cccc(Oc2c([N+](=O)[O-])ccc3c2CCC3OP(=O)(N2CC2)N2CC2)c1)N1CCC1` (stereo not drawn) [Example 246] was tested, and the IC50 [2] was 522 nM.

Work on `O=[N+]([O-])c1ccc2c(c1Oc1cccc(-c3ncccn3)c1)CCC2OP(=O)(N1CC1)N1CC1` (stereo not drawn) [Example 301] yielded an IC50 [2] of 3730 nM.

With `Cc1noc(-c2cccc(Oc3c([N+](=O)[O-])ccc4c3CCC4OP(=O)(N3CC3)N3CC3)c2)n1` (stereo not drawn) [Example 304] the IC50 [2] was 2130 nM.

`O=C1OCCN1c1cccc(Oc2c([N+](=O)[O-])ccc3c2CCC3OP(=O)(N2CC2)N2CC2)c1` (stereo not drawn) [Example 407] was tested, and the IC50 [2] was 380 nM.

`O=C1COCCN1c1cccc(Oc2c([N+](=O)[O-])ccc3c2CCC3OP(=O)(N2CC2)N2CC2)c1` (stereo not drawn) [Example 411] was tested, and the IC50 [1] was 10 to 50 nM.

`O=C1CCCN1c1cccc(Oc2c([N+](=O)[O-])ccc3c2CCC3OP(=O)(N2CC2)N2CC2)c1` (stereo not drawn) [Example 413] showed an IC50 [2] of 1180 nM.
